These results are taken from patent publication US20230234936A1, “COMPOUND FOR TARGETING AND DEGRADING PROTEIN, AND PREPARATION METHOD THEREFOR AND USE THEREOF” (SHANGHAI LEADINGTAC PHARMACEUTICAL CO., LTD., priority 2020, published 2023).

Experiment [1] addresses T1, IRAK4 kinase (Homo sapiens, UniProt Q9NWZ3).
T1 sequence (Q9NWZ3 1-460): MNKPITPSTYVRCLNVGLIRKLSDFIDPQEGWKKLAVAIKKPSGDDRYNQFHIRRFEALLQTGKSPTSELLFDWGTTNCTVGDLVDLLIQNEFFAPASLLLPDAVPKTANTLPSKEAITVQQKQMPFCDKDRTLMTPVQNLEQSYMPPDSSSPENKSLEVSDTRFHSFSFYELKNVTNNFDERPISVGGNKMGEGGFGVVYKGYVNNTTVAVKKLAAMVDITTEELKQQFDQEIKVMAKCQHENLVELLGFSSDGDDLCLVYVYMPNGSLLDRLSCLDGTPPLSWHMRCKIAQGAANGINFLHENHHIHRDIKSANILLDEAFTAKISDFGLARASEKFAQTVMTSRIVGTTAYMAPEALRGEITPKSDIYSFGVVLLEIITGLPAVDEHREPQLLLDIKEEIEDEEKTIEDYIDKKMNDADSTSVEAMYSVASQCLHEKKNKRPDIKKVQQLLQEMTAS
Nature of the experiment: IRAK4 kinase activity test (KinEASE-STK S1 HTRF kit). The note with it: 2.5 nM kinase, 1 μM biotinylated polypeptide substrate, 7 μM ATP, 37° C. 120 min. In kind it is biochemical. In a few lines:
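Compound in DMSO, serially diluted to 10000–0.038 nM final, incubated with 2.5 nM kinase, 1 μM biotinylated peptide substrate and 7 μM ATP at 37° C for 120 min. Eu-anti-phospho-Ser/Thr antibody plus streptavidin-XL665 stopped the reaction (1 h RT). HTRF 665/620 nm ratio gave % inhibition versus control; IC50 from nonlinear log-concentration fit.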
(In general: In TR-FRET formats the signal depends on donor and acceptor labels being close together.)

Experiment [2] deals with T2, IRAK4 protein in THP-1 cells (Homo sapiens, UniProt Q9NWZ3).
T2 construct: endogenous in cells; host or cells: THP-1
T2 sequence (Q9NWZ3 1-460): T1 sequence (Q9NWZ3 1-460)
Put plainly: Degradation of IRAK4 in THP-1 cells (Western blot). In kind it is cell-based. The note with it: 24 hours, compound 1-3000 nM. The method, then: Each well of the 24-well cell culture plate was inoculated with 0.95 mL THP-1 cells (stem cell bank of Chinese academy of sciences) with a cell density of 5×10^5 cells/well. The cell plate was placed in a 5% carbon dioxide incubator and cultured overnight at 37° C., then 50 μL compound in dimethyl sulfoxide was added. The final concentration of the compound was in the range of 1-3000 nM. After continuous cultivation for 24 hours, the cells were collected into a 1.5 mL centrifuge tube, centrifuged at 1000 rpm and 4° C. for 5 minutes. Cell precipitation was cleaned twice with 1-DPBS, resuspended cells were lysed with 200 μL lysate (cell lysate was Western and IP cell lysate (Beyotime), supplemented with 1 mM mixture of phenylmethylsulfonyl fluoride and protease inhibitor (Beyotime)), left on ice for 30 minutes, then centrifuged at 14000 g at 4° C. for 10 minutes, and the supernatant was taken to detect IRAK4 protein level by Western blot.
Western blot method: The total protein concentration in the supernatant of cell lysis was determined by BCA protein quantitative kit (Tiangen). According to the concentration of total protein detected by BCA, the supernatant was adjusted to 0.2 μg/μL with PBS and 5× SDS-PAGE protein loading buffer (Beyotime), bathed in water at 100° C. for 10 minutes, then placed in ice bath for 5 minutes, centrifuged at 14000 g and 4° C. for 5 minutes, and then collected as WB loading sample. Prefabricated glue (KeyGEN) was used for protein electrophoresis with a loading amount of 10 μL (total protein 2 μg). After Tris-MOPS-SDS electrophoresis solution (Adamas), 120V constant pressure electrophoresis was performed. After electrophoresis, the protein on the adhesive strip was transferred to PVDF membrane with a constant current of […] for 50 minutes. After the membrane was transferred, the membrane was placed in 1×QuickBlock blocking buffer (Beyotime) and incubated for 30 minutes at room temperature. After blocking, PVDF membranes were incubated with IRAK4 primary antibody (Abcam) overnight at 4°, the membranes were washed with TBST buffer (2.4 g Tris, 8.8 g NaCl, 1.5 mL Tween 20, pH adjusted to 7.4, constant volume to 1 L) for 30 minutes, incubated with secondary antibody (Abcam) for 2 hours at room temperature, finally incubated with Clarity Western ECL Substrate(BIO-RAD) for 5 minutes for luminescence development, chemiluminescence imaging system (Clinx, chemiScope 6200 Touch) for development and protein mapping photography. The protein map was analyzed by Clinx chemiluminescence analysis software for grayscale values. Using the formula: grayscale correction value=(target protein grayscale value/corresponding internal reference grayscale value)×10^3, the grayscale correction value of each sample was calculated. The degradation rate was calculated by comparing with the grayscale correction value of the control group. Furthermore, DC50 and Dmax values of the compound were obtained by the nonlinear curve fitting with the logarithmic concentration-inhibition rate by GraphPad Prism 7.

A word on the pIC50: it is the IC50 on a negative log10 scale, so that one unit is a factor of ten. High values mean a small IC50, low ones a large IC50. The DC50 is the concentration giving 50% degradation. As a reminder, the Dmax is the largest share of the target that was removed. A low value points to shallow degradation.

pIC50: −log10 of the molar value.

`COc1cc2nn(C3CCN(CC4CCC5(CC4)CCN(C(=O)c4ccc(F)c(C6CCC(=O)NC6=O)c4)CC5)CC3)cc2cc1NC(=O)c1cccc(C(F)(F)F)n1` (stereo not drawn) [Example 42, N-(2-(1-((3-(3-(2,6-dioxopiperidin-3-yl)-4-fluoro-benzoyl)-3-azaspiro [5.5]undec-9-yl)methyl)piperidin-4-yl)-6-methoxy-2H-indazol-5-yl)-6-(trifluoromethyl) pyridinecarbox-amide] showed a pIC50 in experiment [1] of 7.41. In experiment [2], the DC50 stood at 7.8 nM and the Dmax stood at 100%.
In the case of `COc1cc2nn(C3CCN(CCC4CC5(CCN(C(=O)c6ccc(Cl)c(N7CCC(=O)NC7=O)c6)CC5)C4)CC3)cc2cc1NC(=O)c1cccc(C(F)(F)F)n1` [Example 43, N-(2-(1-(2 (7-(4-chloro-3-(2,4-dioxotetrahydro-pyrimidin-1 (2H)-yl)benzoyl)-7-azospiro [3.5]non-2-yl)ethyl)piperidin-4-yl)-6-methoxy-2H-indazol-5-yl)-6-(trifluoromethyl) pyridinecarbox-amide], in experiment [1], the pIC50 is 7.62. In experiment [2], this molecule displayed a DC50 of 4.9 nM and a Dmax of 98.7%.
Molecule `COc1cc2nn(C3CCN(CC4CCC5(CC4)CCN(C(=O)c4ccc(F)c(N6CCC(=O)NC6=O)c4)CC5)CC3)cc2cc1NC(=O)c1cccc(C(F)(F)F)n1` [Example 44, N-(2-(1-((3-(3-(2,4-dioxotetrahydro-pyrimidin-1 (2H)-yl)-4-fluoro-benzoyl)-3-azaspiro[5.5]undec-9-yl)methyl)piperidin-4-yl)-6-methoxy-2H-indazol-5-yl)-6-(trifluoromethyl) pyridinecarbox-amide] had a pIC50 in experiment [1] of 7.28. Besides, in experiment [2], half-maximal degradation (DC50) was put at 2.3 nM and the Dmax turned out to be 98.5%.
For `CC(C)(O)c1cc2nn(C3CCN(CC4CCC5(CC4)CCN(C(=O)c4ccc(F)c(N6CCC(=O)NC6=O)c4)CC5)CC3)cc2cc1NC(=O)c1cccc(C(F)(F)F)n1` [Example 45, N-(2-(1-((3-(3-(2,4-dioxotetrahydro-pyrimidin-1 (2H)-yl)-4-fluoro-benzoyl)-3-azaspiro[5.5]undec-9-yl)methyl)piperidin-4-yl)-6-(2-hydroxyprop-2-yl)-2H-indazol-5-yl)-6-(trifluoro-methyl) pyridinecarbox-amide] the same measures were 7.63, 1.9 nM and 98.2%.
In experiment [1], `COc1cc2nn(C3CCN(CCC4CCC5(CC4)CCN(C(=O)c4ccc(F)c(N6CCC(=O)NC6=O)c4)CC5)CC3)cc2cc1NC(=O)c1cccc(C(F)(F)F)n1` [Example 46, N-(2-(1-(2-(3-(3-(2,4-dioxotetrahydro-pyrimidin-1 (2H)-yl)-4-fluoro-benzoyl)-3-azaspiro[5.5]undec-9-yl)ethyl)piperidin-4-yl)-6-methoxy-2H-indazol-5-yl)-6-(tri-fluoromethyl) pyridinecarbox-amide] had a pIC50 of 7.37. In experiment [2], this molecule showed a DC50 of 4 nM and a Dmax of 97.8%.
Taken in the same sequence, the figures for `COc1cc2nn(C3CCN(CCC4CCC5(CC4)CCN(C(=O)c4cccc(N6CCC(=O)NC6=O)c4)CC5)CC3)cc2cc1NC(=O)c1cccc(C(F)(F)F)n1` [Example 47, N-(2-(1-(2-(3-(3-(2,4-dioxotetrahydro-pyrimidin-1 (2H)-yl)benzoyl)-3-azaspiro[5.5]undec-9-yl)ethyl)piperidin-4-yl)-6-methoxy-2H-in-dazol-5-yl)-6-(tri-fluoromethyl) pyridinecarbox-amide] were 7.47, 5.4 nM and 98.3%.
`COc1cc2nn(C3CCN(CCC4CCC5(CC4)CCN(C(=O)c4ccc(Cl)c(N6CCC(=O)NC6=O)c4)CC5)CC3)cc2cc1NC(=O)c1cccc(C(F)(F)F)n1` [Example 48, N-(2-(1-(2-(3-(4-chloro-3-(2,4-dioxotetrahydro-pyrimidin-1 (2H)-yl)benzoyl)-3-azaspiro[5.5]undec-9-yl)ethyl)piperidin-4-yl)-6-methoxy-2H-in-dazol-5-yl)-6-(tri-fluoromethyl) pyridinecarbox-amide] had a pIC50 in experiment [1] of 7.21. In experiment [2], the DC50 came to 6 nM and the Dmax came out at 98%.
Consider `COc1cc2nn([C@H]3CC[C@H](CN4CCC5(CC4)CCN(C(=O)c4ccc(Cl)c(N6CCC(=O)NC6=O)c4)CC5)CC3)cc2cc1NC(=O)c1cccc(C(F)(F)F)n1` [Example 50, N-(2-((1r,4r)-4-((9-(4-chloro-3-(2,4-dioxotetrahydropyrim-idin-1 (2H)-yl)benzoyl)-3,9-diazaspiro[5.5]undec-3-yl)methyl)cyclohexyl)-6-methoxy-2H-inda-zol-5-yl)-6-(tri-fluoromethyl) pyridinecarbox-amide], for which the negative-log IC50 (pIC50) in experiment [1] is 8.14. For the same molecule, in experiment [2], the DC50 was 5.6 nM and the Dmax stood at 97%.
Taken in the same sequence, the figures for `COc1cc2nn([C@H]3CC[C@H](CN(C)CC4CCN(C(=O)c5ccc(Cl)c(N6CCC(=O)NC6=O)c5)CC4)CC3)cc2cc1NC(=O)c1cccc(C(F)(F)F)n1` [Example 51, N-(2-((1r,4r)-4-((((1-(4-chloro-3-(2,4-dioxotetrahydro-pyrimidin-1 (2H)-yl)benzoyl)piperdin-4-yl)methyl) (methyl)amino)methyl)cyclohexyl)-6-methoxy-2H-inda-zol-5-yl)-6-(tri-fluoromethyl) pyridinecarbox-amide] were 7.95, 27.5 nM and 95.4%.
Taken in the same sequence, the figures for `COc1cc2nn([C@H]3CC[C@H](N4CCC5(CCN(C(=O)c6ccc(Cl)c(N7CCC(=O)NC7=O)c6)CC5)CC4)CC3)cc2cc1NC(=O)c1cccc(C(F)(F)F)n1` [Example 58, N-(2-((1r,4r)-4-(9-(4-chloro-3-(2,4-dioxotetrahydro-pyrimidin-1 (2H)-yl)benzoyl)-3,9-diazaspiro[5.5]undec-3-yl)cyclohexyl)-6-methoxy-2H-inda-zol-5-yl)-6-(triflu-oromethyl) pyridinecarbox-amide] were 8.37, 7.6 nM and 92.1%.
For `CCN(C1CCC2(CC1)CCN(C(=O)c1ccc(Cl)c(N3CCC(=O)NC3=O)c1)CC2)[C@H]1CC[C@H](n2cc3cc(NC(=O)c4cccc(C(F)(F)F)n4)c(OC)cc3n2)CC1` [Example 60], the pIC50 in experiment [1] was 8.19. Also, in experiment [2], the DC50 was 5.1 nM and the Dmax was found to be 93.2%.
For `CN(CC1CCN(C(=O)c2ccc(Cl)c(N3CCC(=O)NC3=O)c2)CC1)C[C@H]1CC[C@H](n2cc3cc(NC(=O)c4cccc(C(F)(F)F)n4)c(C(C)(C)O)cc3n2)CC1` [Example 62] the same measures were 8.16, 5.6 nM and 92.3%.
For `COc1cc2nn([C@H]3CC[C@H](COCCC4CCN(C(=O)c5ccc(Cl)c(N6CCC(=O)NC6=O)c5)CC4)CC3)cc2cc1NC(=O)c1cccc(C(F)(F)F)n1` [Example 64, N-(2-((1r,4r)-4-((2-(1-(4-chloro-3-(2,4-dioxotetrahydro-pyrimidin-1 (2H)-yl)benzoyl)piperidin-4-yl)ethoxy)methyl)cyclohexyl)-6-methoxy-2H-indazol-5-yl)-6-(trifluoro-methyl) pyridinecarbox-amide], the negative logarithm of the IC50 (pIC50) in experiment [1] was 7.32. In experiment [2], this molecule showed a DC50 of 13.9 nM and a Dmax of 95.6%.
